Source: patent US11224582B2, “Amino acid formulations for pancreatic viability” (Almeda Labs LLC, priority 2017, dated 2022)
Entries after “also recorded” stand apart in the source; their conditions may differ.

Key:
rat islets [1] = test: Viability assay of rat islets (Yo-Pro / propidium iodide staining); format: cell-based; conditions: for Apoptotic Cells (%) / Live Cells (%) / Necrotic Cells (%): 1 g/L in RPMI, 11.6 mM glucose
Procedure: During the long-term (11 day) exposure, the islets were administered Amino Acid Formulation #1 or cysteine (at the same concentration) or culture media with no added amino acids.
Isolated rat islets were cultured in 100 cm^2 cell culture plates (untreated) in 20 ml of Roswell Park Memorial Institute (RPMI) media. […] Islets were removed from the dish and placed in 50 ml tubes. Islets were allowed time to settle to the bottom of the tube. The excess media was removed, and the islets were moved to microcentrifuge tubes, and DPBS solution was added to each tube. Cells were washed and fresh DPBS added.
Islets had media changed every 2 days with continuous exposure to Amino Acid Formulation #1, Cysteine alone, or media alone. Amino Acid Formulation #1 was prepared in the lab using amino acid capsules: […]
The working solutions contained 1 g/1 L concentration of Amino Acid Formulation #1 or cysteine alone prepared in RPMI.
25-50 islets were removed from the dishes and placed in 50 ml tubes. Islets were allowed time to settle to the bottom of the tube. The excess media was removed, and the islets were moved to microcentrifuge tubes, and DPBS solution was added to each tube. Cells were washed and fresh DPBS added. Propidium iodide and yo-pro were added to the tubes at a ratio of 1 μl reagent to 1 ml cells in DPBS.
Individual wells of 96-well plates were manually loaded with 10-15 islets each and checked visually under a microscope for consistency between wells. 30 minutes later, the plates were loaded into the BioTeck plate reader with readings for Yo-Pro and Propidium iodide with additional verification of islet tissue using dithizone staining.
Results were saved as images for later cellular analysis.
All islets identified in each condition were scored for the percent area of apoptotic and necrotic cells. The remaining percentage was calculated as live cells.

rat islets [2] = test: Islet survival (number of islets over time in culture); format: cell-based
Excerpt: The objective of the experiment was to test the effect of long-term exposure of rat islets to Amino Acid Formulation #1 and compare those results to the currently-marketed amino acid, cysteine. A group without added amino acids was used as a control group. The comparison was based on the number of dead cells within islets over time, a count of the number of islets surviving over time, and the functional test of cellular metabolism after long-term exposure.
Rat islets were isolated from the pancreata of female animals under approved protocol and SOPs. […] The imaging capabilities of the Cytation plate reader was utilized for survival values.
All groups began with the same number of total islets per group.

rat islets [3] = test: Dithizone staining / light microscopy of rat islets; format: cell-based; conditions: day 1
Excerpt: Islets were exposed to a single dose of Amino Acid Formulation #1 or cysteine for 11 days. FIG. 1 illustrates images of islets from each condition on day 1, stained with dithizone, which identifies islet cells via dark red color.
In the control media, the same was found.

[4] = Dissolution of test articles in RPMI working solutions; format: physicochemical; conditions: 1 g/1 L in RPMI, after 24 hours at 37° C.
Procedure: The working solutions contained 1 g/1 L concentration of Amino Acid Formulation #1 or cysteine alone prepared in RPMI. […] The working medium was kept at 37° C. in incubator with islets.

[5] = system: human beta-cell line (INS-1 832/13); test: Viability assay (PrestoBlue) of beta-cell line with single amino acids, double crosses and blends, Example 4; conditions: for effect of single amino acid on cell viability: 5-hour exposure in PBS; for effect on cell viability in single / double crosses: each amino acid at 1 mg/mL; for effect on cell viability at the highest doses / higher concentrations: single amino acids
Procedure: The human beta-cell line (INS-1 832/13) was expanded and maintained in RPMI-1640 growth media during expansion. Cells were grown and sustained in T75 cell culture flasks in an incubator at 37° C. and 5% CO2. Cells were passaged every 4th day via trypsinization. All cell media changes and passage work was done under a biosafety hood to ensure sterility of the cultures. Readings were obtained from the EnSpire Multimode Plate Reader (Perkin Elmer) with excitation of 560 nm and emission of 590 nm. To avoid plate edge effects the outer wells of each plate were used as blanks.
The INS-1 832/13 cell line, a derivation of the INS-1 cell line, was cultured in a growth medium consisting of RPMI-1640, along with 1 M HEPES buffer solution, 50×INS supplement (glutamine, Na-pyruvate, and B-mercaptoethanol), Antibiotic-Antimycotic (Gibco by LifeTechnologies), and Fetal Bovine Serum (HyClone). Cells were grown and sustained in a T75 cell culture flask. The cells were placed in a humidified incubator at 37° C. and 5% CO2. Due to the rapid growth of these cells, media was changed on every second day and passaged on every fourth day via trypsinization. When cells were confluent, they were exposed to amino acids as described below.
Pilot studies were undertaken with 6 single amino acids to determine the optimal conditions for cell testing, and the optimal time for exposure to the amino acids. […] Thus, a second trial was undertaken removing the media and placing cells in phosphate buffered saline at the time of the amino acid addition. […] Thus, the optimal conditions were determined to be a 5-hour exposure to the amino acids in PBS.
For the full study, cells plated in 384-well plates were exposed to individual amino acids at 10 full-log doses for 4 hours at 37° C. and 5% CO2. PrestoBlue (10%) was added to each well using the Hamilton Star Automated Fluid Handling System, and 1 hour later, for a total of 5 hours of exposure to the amino acids.
The plates were loaded into the EnSpire plate reader with excitation of 560 nm and emission of 590 nm excitation wavelengths.
Amino acids were added to a minimal buffer in full log concentrations starting at 1E−08 through 10 mg/mL. […] In the graph, the data have been normalized to cell viability in minimal buffer with no amino acids (100%).
Thus, a concentration of 1 mg/mL of a single amino acid is actually a 5 mg/mL of the full blend, because there are 5 different amino acids in each blend mixed in equal amounts.

In the case of `N[C@@H](CS)C(=O)O` [Cysteine, L-Cysteine], the “route of cell death (apoptosis / necrosis)” value (rat islets [1]) was “both apoptosis and necrosis”, the “cell death (Yo-Pro and Propidium Iodide staining)” value (rat islets [1]; 24 hours exposure, compared with control and Formulation #1) was “greater than the other 2” and the “Apoptotic Cells (%)” value (rat islets [1]; Day 1) was 18.2 + 21.3%. For the same compound, the “Live Cells (%)” value (rat islets [1]; Day 1) was 58.4 ± 33.4 %, the “Necrotic Cells (%)” value (rat islets [1]; Day 1) was 23.4 ± 20.4% and the “Apoptotic Cells (%)” value (rat islets [1]; Day 4) was 47.1 ± 35.9%. The “Live Cells (%)” value (rat islets [1]; Day 4) was 42.0 ± 39.8 %, the “Necrotic Cells (%)” value (rat islets [1]; Day 4) was 10.9 + 13.4% and the “viability compared with the other groups” value (rat islets [1]; days 1, 4 and 8) was “significantly lower viability than the other two groups”. For the same compound, the “islets found in the group” value (rat islets [2]; day 8) was “No islets could be identified; also recorded: no live islets could be found”, the “islet survival time in culture” value (rat islets [2]; no islets survived past this time) was no more than 6 days and the “number of islets as % of the Amino Acid Formulation #1 group” value (rat islets [2]; within 24 hours of exposure) was 78%. The “islets with core cell death” value (rat islets [3]) was “approximately 30%”, the “undissolved crystals in working solution” value [4] was “still had microscopic crystals that had not gone completely into solution” and the “effect of single amino acid on cell viability” value (from here on “effect of single amino acid”) ([5]; 0.01 mg/mL and higher) was “positive impact on cell viability”. For the same compound, the “effect on cell viability in single / double crosses” value (shortened to “effect … in single / double crosses”) [5] was “most positive effect on cell health” and the “effect on cell viability at the highest doses / higher concentrations” value [5] was “improve viability at the higher concentrations tested”.

For `N[C@@H](CO)C(=O)O` [serine, L-Serine], the “effect of single amino acid” value ([5]; 10 mg/mL) was “slightly positive increases in viability”.

With `NC(=O)C[C@H](N)C(=O)O` [asparagine, L-Asparagine] the “cells left in the dish that were alive” value ([5]; double cross: another 1 mg/mL of asparagine added to 1 mg/mL asparagine) was 18%, the “effect … in single / double crosses” value [5] was “dramatic reduction in beta cell viability” and the “effect on cell viability at the highest doses / higher concentrations” value [5] was “negative effects on cell viability at the highest doses”. The “effect of single amino acid” value ([5]; starting at 1 mg/mL) was “dramatic reductions in the viability”.

With `N[C@@H](Cc1c[nH]cn1)C(=O)O` [histidine, L-Histidine] the “effect … in single / double crosses” value [5] was “very little effect on cell viability except when paired with asparagine or arginine”, the “cells killed (fraction, words)” value ([5]; single amino acid, high doses (from 1 mg/mL)) was “approximately half” and the “effect of single amino acid” value ([5]; starting at 1 mg/mL) was “dramatic reductions in the viability”.

With `N=C(N)NCCC[C@H](N)C(=O)O` [arginine, L-Arginine] the “effect … in single / double crosses” value [5] was “decrease in cell viability when added to any other amino acid”, the “effect on cell viability at the highest doses / higher concentrations” value [5] was “negative effects on cell viability at the highest doses” and the “effect of single amino acid” value ([5]; starting at 1 mg/mL) was “dramatic reductions in the viability”.

For `C[C@@H](O)[C@H](N)C(=O)O` [threonine, L-Threonine], the “effect of single amino acid” value ([5]; 10 mg/mL) was “slightly positive increases in viability”.
